The values that follow come from PMC12148441, “The mechanism of peptidoglycan O-acetylation in Gram-negative bacteria typifies bacterial MBOAT-SGNH acyltransferases [drawing 1]” (The Journal of Biological Chemistry, 2025).

In the experiment the target is T1, NgPatBΔ100 (Neisseria gonorrhoeae, UniProt Q5F966).
T1 construct: gene NGO_0533; SGNH domain (Δ100, N-terminal truncation), E. coli BL21(DE3), His-SUMO tag removed by Ulp1; catalytic Ser133, His305, Asp302
The experiment can be described thus: transacetylation of chitopentaose. To be noted: acetyl donor (1 mM acetyl-amino acids); chitopentaose acceptor; 50 mM sodium phosphate pH 7.0. It counts as biochemical.

T1 sequence (Q5F966 entry or part of it, stated change not applied): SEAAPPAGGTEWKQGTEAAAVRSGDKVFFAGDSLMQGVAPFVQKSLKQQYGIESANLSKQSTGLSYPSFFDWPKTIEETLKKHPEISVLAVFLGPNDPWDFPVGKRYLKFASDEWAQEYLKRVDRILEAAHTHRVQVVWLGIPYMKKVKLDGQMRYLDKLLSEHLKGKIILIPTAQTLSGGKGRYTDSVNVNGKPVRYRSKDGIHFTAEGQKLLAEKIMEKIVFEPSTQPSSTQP

Consider `CC(=O)Oc1ccc(C[C@H](N)C(=O)O)cc1` [O-acetyl-Tyr], for which the transacetylation of chitopentaose result is listed as “O-acetyl-Tyr, but not O-acetyl-Ser, were sufficient for transacetylation of chitopentaose by NgPatB”.
